According to US20230024438A1, “INHIBITORS OF HIF-2ALPHA” (ARCUS BIOSCIENCES, INC., priority 2019, published 2023):

Assays:
[1] = target: T1, HIF-2α (Homo sapiens, UniProt Q99814); assay: HIF-2α Luciferase Reporter Assay; assay type: cell-based; conditions: HIF-Luc-786-0 cells, 20 hours incubation, luciferase activity; read-out: HIF-2α Luciferase Assay
T1 construct: endogenous in cells; host or cells: 786-O cells (ATCC CRL-1932) stably carrying the Cignal Lenti HIF Luc Reporter
Method: Stable cell lines were generated by transducing 786-O cells (ATCC, CRL-1932) with Cignal Lenti HIF Luc Reporter lentivirus (CLS-007L, Qiagen) according to the manufacturer's guidelines. In brief, 0.3×10^6 786-0 cells were transduced with lentivirus at a Multiplicity of Infection (MOI) of 25 for 24 hours. After transduction, cells were replenished with fresh RPMI 1640 Medium (Cat. No. 11875085, Thermo Fisher,) supplemented with 10% FBS (Cat. No. A3160502, Gibco), 2 mM GlutaMax (Cat. No. 35050-061, Invitrogen) and 100 units of penicillin and 100 μg of streptomycin/mL (Cat. No 15070063, Thermo Fisher) for another 24 hours. Antibiotic selection was performed in cell media containing 4 μg/mL of Puromycin. After 7 days of antibiotic selection, stable pools of surviving cells were expanded and used in a luciferase reporter assay.
On day one, 20 uL of HIF-Luc-786-0 cells in OptiMem (Cat. No. 31985088, Thermo Fisher) were seeded into each well of a 384 well white opaque plate (Corning 3570) and incubated at 37° C. and 5% CO2. Twenty microliters of 2× test compounds in OptiMem were added to cells after 4 hours of incubation. Final assay conditions comprised 20,000 cells per well in 1% DMSO with test compound concentrations ranging from 50 uM to 0 uM. After 20 hours incubation at 37° C. and 5% CO2, luciferase activity was determined using ONE-Glo Luciferase Assay Reagent (E6110, Promega) following the manufacture's recommended procedure. Briefly, 40 uL of ONE-Glo luciferase reagents were added to each well and luciferase signals were measured using an Envision 2102 Multilabel Reader. Percentage maximum activity in each test well was calculated based on DMSO (maximum activity) and no cell control wells (baseline activity). The IC50 values of the test compounds were determined from compound dose response curves fitted using a standard four parameter fit equation.

[2] = target: T2, Histidine tagged HIF-2α protein containing PAS-B domain (240-350) (Homo sapiens, UniProt Q99814); assay: HIF-2α Scintillation Proximity Assay (SPA); assay type: binding; conditions: 50 nM HIF-2α protein, 25 nM radiolabeled tracer; read-out: HIF-2α Scintillation Proximity Assay
T2 construct: Histidine tagged HIF-2α protein containing PAS-B domain (240-350) was prepared and purified in house; made in house
Method: Tritium labeled compound N-(3-chlorophenyl)-4-nitro-2,1,3-benzoxadiazol-5-amine was obtained from American Radiolabeled Chemicals Inc. and copper chelate PVT SPA beads were from PerkinElmer (Cat #RPNQ0095). Histidine tagged HIF-2α protein containing PAS-B domain (240-350) was prepared and purified in house.
Compounds solubilized in DMSO were dispensed into a white 384-well polystyrene non-binding flat clear bottom plate (Greiner Bio-One, Cat #781903) using an HP D300 dispenser. Ten microliters of HIS-tagged HIF-2α protein in buffer (25 mM Tris-HCl, pH 7.4, 150 mM NaCl, 0.15% BSA and 0.001% Tween 20) was added to the compound wells and allowed to incubate for 1 hour at room temperature. Ten microliters of SPA bead mix were added to the wells and incubated for an additional 45 minutes, followed by 10 ul of ^3H-tracer solution. Final assay conditions comprised 50 nM HIF-2α protein, 25 nM radiolabeled tracer and 3 ug beads per well with compounds in 2% DMSO. The plate was read using a MicroBeta Microplate Counter (PerkinElmer) for luminescence detection. The IC50 values of the test compounds were determined from compound dose response curves fitted using a standard four parameter fit equation and are reported in Table 1.

T2 sequence (Q99814 240-350): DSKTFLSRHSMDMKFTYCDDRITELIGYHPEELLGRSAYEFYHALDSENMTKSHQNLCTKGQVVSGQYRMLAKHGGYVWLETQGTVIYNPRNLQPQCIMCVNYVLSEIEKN
T1 sequence (Q99814 whole entry): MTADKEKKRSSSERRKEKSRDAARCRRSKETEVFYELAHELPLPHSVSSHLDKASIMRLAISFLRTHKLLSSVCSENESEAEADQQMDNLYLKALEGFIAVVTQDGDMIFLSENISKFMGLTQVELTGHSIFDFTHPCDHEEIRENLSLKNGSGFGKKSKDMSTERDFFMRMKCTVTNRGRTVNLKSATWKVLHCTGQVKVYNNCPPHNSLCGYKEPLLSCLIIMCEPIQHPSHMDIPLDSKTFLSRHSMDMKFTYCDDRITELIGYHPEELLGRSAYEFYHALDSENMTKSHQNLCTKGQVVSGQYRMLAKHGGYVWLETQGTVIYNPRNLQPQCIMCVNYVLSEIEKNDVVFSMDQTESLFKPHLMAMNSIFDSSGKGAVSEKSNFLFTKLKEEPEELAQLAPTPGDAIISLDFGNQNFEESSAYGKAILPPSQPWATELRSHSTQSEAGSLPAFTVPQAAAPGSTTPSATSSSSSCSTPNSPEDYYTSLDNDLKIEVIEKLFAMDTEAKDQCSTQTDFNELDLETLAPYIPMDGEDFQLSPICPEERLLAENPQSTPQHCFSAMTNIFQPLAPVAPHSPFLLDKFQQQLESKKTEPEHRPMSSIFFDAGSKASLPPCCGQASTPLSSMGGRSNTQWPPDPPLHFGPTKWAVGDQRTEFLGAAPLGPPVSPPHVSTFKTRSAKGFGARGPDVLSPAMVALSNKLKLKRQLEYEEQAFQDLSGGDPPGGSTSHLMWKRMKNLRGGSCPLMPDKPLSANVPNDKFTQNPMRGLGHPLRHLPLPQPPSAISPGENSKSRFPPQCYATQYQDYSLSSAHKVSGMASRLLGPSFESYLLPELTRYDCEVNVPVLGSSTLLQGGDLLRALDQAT

SMILES | IC50 [1] | IC50 [2]
O=S(=O)(c1ccc(Oc2cc(Cl)cc(OC(F)(F)F)c2)c2cn[nH]c12)C(F)(F)F [Example 29, 4-[3-Chloro-5-(trifluoromethoxy)phenoxy]-7-(trifluoromethylsulfonyl)-1H-indazole] | > 10 µM | > 10 µM
O=S(=O)(c1ccc(Oc2cc(F)c(F)c(F)c2)c2cn[nH]c12)C(F)(F)F [Example 30, 7-(Trifluoromethylsulfonyl)-4-(3,4,5-trifluorophenoxy)-1H-indazole] | > 10 µM | 1 to 10 µM
O=S(=O)(c1ccc(Oc2cccc(F)c2)c2cn[nH]c12)C(F)(F)F [Example 31, 4-(3-Fluorophenoxy)-7-(trifluoromethylsulfonyl)-1H-indazole] | 1 to 10 µM | 1 to 10 µM
O=S(=O)(c1ccc(Oc2cccc(C(F)(F)F)c2)c2cn[nH]c12)C(F)(F)F [Example 32, 4-[3-(Trifluoromethyl)phenoxy]-7-(trifluoromethylsulfonyl)-1H-indazole] | > 10 µM | > 10 µM
O=S(=O)(c1ccc(Oc2ccc(Cl)c(F)c2)c2cn[nH]c12)C(F)(F)F [Example 33, 4-(4-Chloro-3-fluorophenoxy)-7-(trifluoromethylsulfonyl)-1H-indazole] | > 10 µM | > 10 µM
N#Cc1ccc(Oc2ccc(S(=O)(=O)C(F)(F)F)c3[nH]ncc23)cc1F [Example 34, 2-Fluoro-4-[[7-(trifluoromethylsulfonyl)-1H-indazol-4-yl]oxy]benzonitrile] | > 10 µM | > 10 µM
N#Cc1cc(Oc2ccc(S(=O)(=O)C(F)(F)F)c3[nH]ncc23)ccc1Cl [Example 35, 2-Chloro-5-[[7-(trifluoromethylsulfonyl)-1H-indazol-4-yl]oxy]benzonitrile] | > 10 µM | 1 to 10 µM
O=S(=O)(c1ccc(Oc2ccc(F)c(F)c2)c2cn[nH]c12)C(F)(F)F [Example 37, 4-(3,4-Fifluorophenoxy)-7-(trifluoromethylsulfonyl)-1H-indazole] | 1 to 10 µM | 1 to 10 µM
O=S(=O)(c1ccc(Oc2ccc(F)c(Cl)c2)c2cn[nH]c12)C(F)(F)F [Example 38, 4-(3-Chloro-4-fluorophenoxy)-7-(trifluoromethylsulfonyl)-1H-indazole] | 1 to 10 µM | 1 to 10 µM
O=S(=O)(c1ccc(Oc2cccc(Cl)c2)c2cn[nH]c12)C(F)(F)F [Example 41, 4-(3-Chlorophenoxy)-7-(trifluoromethylsulfonyl)-1H-indazole] | 1 to 10 µM | < 1 µM
N#Cc1cccc(Oc2ccc(S(=O)(=O)C(F)(F)F)c3[nH]ncc23)c1 [Example 42, 3-[[7-(Trifluoromethylsulfonyl)-1H-indazol-4-yl]oxy]benzonitrile] | 1 to 10 µM | < 1 µM

Second part, the compound after the results:

IC50 [1] | IC50 [2] | SMILES
1 to 10 µM | 1 to 10 µM | Cc1cc(C#N)cc(Oc2ccc(S(=O)(=O)C(F)(F)F)c3[nH]ncc23)c1 [Example 28, 3-Methyl-5-[[7-(trifluoromethylsulfonyl)-1H-indazol-4-yl]oxy]benzonitrile]
> 10 µM | 1 to 10 µM | N#Cc1cc(Oc2ccc(S(=O)(=O)C(F)(F)F)c3[nH]ncc23)ccc1F [Example 36, 2-Fluoro-5-[[7-(trifluoromethylsulfonyl)-1H-indazol-4-yl]oxy]benzonitrile]
1 to 10 µM | 1 to 10 µM | N#Cc1cc(Oc2ccc(S(=O)(=O)C(F)(F)F)c3[nH]ncc23)cc(C(F)(F)F)c1 [Example 39, 3-(Trifluoromethyl)-5-[[7-(trifluoromethylsulfonyl)-1H-indazol-4-yl]oxy]benzonitrile]
1 to 10 µM | < 1 µM | O=S(=O)(c1ccc(Oc2cc(F)cc(Cl)c2)c2cn[nH]c12)C(F)(F)F [Example 40, 4-(3-Chloro-5-fluorophenoxy)-7-(trifluoromethylsulfonyl)-1H-indazole]
1 to 10 µM | 1 to 10 µM | N#Cc1cc(F)cc(Nc2ccc(S(=O)(=O)C(F)(F)F)c3[nH]ncc23)c1 [Example 45, 3-Fluoro-5-[(7-trifluoromethanesulfonyl-1H-indazol-4-yl)amino] benzonitrile]
